Source: patent US9809562B2, “NAT10 modulators for treating or preventing laminopathies, aging and cancer” (CAMBRIDGE ENTERPRISE LIMITED, priority 2014, dated 2017)
Where a name gives a salt, the structure may show the parent alone.

Experiments:
[1] = test system: farnesyltransferase activity (pre-Lamin A cleavage and maturation); assay: Lamin A processing by western blotting; type: cell-based, human
Protocol: The following KAT and KDAC inhibitors were used in the nuclear shape rescue screen, incubating cells with the molecules for 16 hours: trichostatin A (1 μM), sodium butyrate (5 mM), tubacin (10 μM), SAHA (5 μM), curcumin (10 μM), garcinol (50 μM), anacardic acid (1 μM), MB-3 (5 μM), 4-(4-chlorophenyl)-2-(2-cyclopentylidenehydrazinyl)thiazole (Compound 2) (50 μM), 4-(4-chlorophenyl)-2-(2-cyclopentylidene-1-(prop-2-yn-1-yl)hydrazinyl)thiazole (Compound 3) (50 μM) and cyclopentylidene-[4-(4-cyanophenyl)thiazol-2-yl)hydrazine (Compound 1) (Remodelin) (10 to 50 μM). For HGPS cellular fitness assays, Remodelin was incubated at 1 μM for 1 to 10 days, renewing the medium every 3 days. For long-term senescence assay, cells were kept and passaged in medium containing 1 μM Remodelin or DMSO only for 12 population doublings. Senescence was assessed after 8 days of Remodelin treatment when cells were at Population Doubling 12, and then after several weeks of Remodelin treatment, when cells reached Population Doubling 24 using the Senescence β-Galactosidase Staining Kit #9860 from Cell Signaling. […]
Total cell extracts were prepared by scraping cells in SDS lysis buffer (4% SDS, 20% glycerol, and 120 mM Tris-HCl, pH 6.8), boiling for 5 minutes at 95° C., followed by 10 strokes through a 25-gauge needle. […] Detection and quantification was performed with an imager (Odyssey; LI-COR Biosciences).

HGPS cells = assay: EdU incorporation by flow cytometry in HGPS cells; type: cell-based, human; conditions: 2 hours EdU
Protocol: 10 μM EdU was incubated for 2 hours when indicated. Cells were fixed in 4% paraformaldehyde (Sigma-Aldrich). EdU was fluorescently labeled using the Click-iT® EdU Flow Cytometry Assay Kit (Life Sciences). DNA was stained with […] propidium iodide (Sigma-Aldrich) in phosphate buffer solution (PBS) containing 0.1% Triton-X-100 and 0.5 mg ml^−1 DNase free RNase A (Sigma-Aldrich). Samples were processed on a FACSCalibur flow cytometer equipped with CellQuest software (Becton Dickinson). Results were analysed using FlowJo software (TreeStar).

[2] = test system: microtubule network of cells; assay: Microtubule network by immunofluorescence of α-Tubulin; type: cell-based
Protocol: Cells were washed with PBS and fixed for 20 minutes with 2% PFA in PBS. Cells were permeabilised for 5 minutes with PBS/0.2% Triton X-100, and blocked with PBS/0.2% Tween 20 (PBS-T) containing 5% BSA. Coverslips were incubated for 1 hour with primary antibodies and for 30 minutes with appropriate secondary antibodies coupled to Alexa Fluor 488 or 594 fluorophores (Life Technologies), before being incubated with 2 μg/ml DAPI. Pictures were acquired with a FluoView 1000 confocal microscope (Olympus). For high resolution imaging, z-stacks were acquired with a Deltavision PersonalDV (Applied Precision, 1024×1024 CoolSNAP HQ2 camera, z-stack of 0.2 μm interval) or with a Deltavision OMX V3 in conventional mode (Applied Precision, 512×512 Cascade II cameras (Photometrics), z-stack of 0.125 μm interval) both equipped with a 100× UPlanSApo/1.40 oil objective (Olympus) and controlled with SoftWoRx software (Applied Precision). Deconvolutions were then performed with SoftWoRx (Applied Precision) in conservative mode. The different channels were acquired sequentially.

siLMNA cells = assay: Golgi apparatus integrity (anti-Giantin) in siLMNA cells; type: cell-based, human
Excerpt: FIG. 13: Inhibiting NAT10 acetyltransferase activity modifies microtubule organisation to rescue nuclear shape defects. A) Microtubule network visualisation by inverted IF pictures of α-Tubulin. B) Nuclear shape visualisation after treating cells with microtubule or actin cytoskeleton disrupting agents. C) Visualisation of nuclear shape (DAPI) and Golgi (anti-Giantin) integrity in siLMNA cells. D) Fractionation of polymerised (P) and soluble (S) tubulin upon Remodelin or nocodazole (Nocod.) treatment. […] Right: quantification of cells with the indicated patterns (means of three independent experiments with n>103±s.e.m.). F) Laminopathic cells have enlarged, misshapen nuclei associated with disorganized chromatin structure. Upon Remodelin treatment, NAT10 acetyltransferase activity is inhibited, leading to disruption of microtubule anchorage at the centrosome and release of microtubule forces on the nuclear envelope. This release of mechanical stress on the nucleus contributes to nuclear shape rescue and global improvement of cellular fitness and chromatin organization. Scale bars: 20 μm.
Cells were washed with PBS and fixed for 20 minutes with 2% PFA in PBS. Cells were permeabilised for 5 minutes with PBS/0.2% Triton X-100, and blocked with PBS/0.2% Tween 20 (PBS-T) containing 5% BSA. […]

[3] = test system: siLMNA cells and HGPS cells; assay: Microtubules regrowth assay; type: cell-based, human; conditions: t=15 minutes after cold depolymerization, 5 to 10 μM Remodelin 16 hours
Protocol: 48 hours after siRNA transfections, microtubules were depolymerized by cold treatment at 4° C. for 1 hour in cells pre-treated or not with 5 to 10 μM Remodelin for 16 hours. Cold medium was replaced by pre-warmed medium and cells were incubated at 37° C. for 5 or 15 minutes to allow microtubules nucleation and anchorage respectively. Cells were fixed in PFA and stained with anti α-Tubulin antibody as described in the immunofluorescence procedure.

[4] = test system: LMNA knock out (KO) U2OS cell line; assay: Cell growth of LMNA KO versus LMNA WT U2OS cells (IncuCyte ZOOM); type: cell-based, human; conditions: U2OS, CripR/Cas9 LMNA KO
Excerpt: LMNA knock out (KO) U2OS cell line was engineered using CripR/Cas9 technology. The sensitivity of LMNA KO cells to Compound 2 was compared to cells expressing wild type LMNA (LMNA WT). Cell growth was monitored automatically over time using an IncuCyte ZOOM®. The results are shown in FIG. 21 which has been split into two graphs for easier reading of the curves.

[5] = In vivo toxicity, body weight change; conditions: mice, oral daily dose for 14 days

Compound	pre-Lamin A processing [1]	DNA replication (EdU incorporation) (HGPS cells)	microtubule network organization [2]	Golgi apparatus integrity (siLMNA cells)	anchorage of microtubules to centrosomes [3]	cell growth inhibition of LMNA KO versus LMNA WT cells [4]	tolerability (body weight change) [5]
N#Cc1ccc(-c2csc(NN=C3CCCC3)n2)cc1 [Compound 1, 4-(4-Cyanophenyl)-2-(2-cyclopentylidenehydrazinyl)thiazole]	did not block pre-Lamin A cleavage and maturation	improved DNA replication	striking reorganization	did not affect Golgi apparatus integrity	anchorage of microtubules to centrosomes was clearly affected	–	–
Clc1ccc(-c2csc(NN=C3CCCC3)n2)cc1 [Compound 2, 4-(4-Chlorophenyl)-2-(2-cyclopentylidenehydrazinyl)thiazole Hydrochloride Salt]	–	–	–	–	–	specificity of Compound 2 towards inhibiting cell growth of LMNA KO cells	well tolerated orally, up to high doses of 400 mg/kg/day, without significant decrease of body weight
